Measured values: patent publication US11807644B2 (PMV Pharmaceuticals, Inc., priority 2020, dated 2023)

Molecular target: T1, recombinant His-tag Y220C p53 DBD protein (Homo sapiens, UniProt P04637, Y220C)
T1 construct: recombinant His-tag Y220C p53 DBD protein (amino acids #˜94-312)
Assay: In vitro DNA binding activity assay (TR-FRET): binding of His-tag Y220C p53 DBD to biotin-labeled consensus DNA
Type: biochemical
Conditions: SC150 = concentration to increase DNA binding by […], His-tag Y220C p53 DBD, biotin-labeled consensus DNA

Y220C SC150 (μM)	Structure (SMILES)
* (* = 0 μM ≤ SC150 < 0.1 μM)	CN1CC[C@@H](Nc2cccc3c2cc(-c2noc(CNC(=O)c4ccc(N(C)C)nc4)n2)n3CC(F)(F)F)[C@@H](F)C1 [Compound 557B, 6-(dimethylamino)-N-{[3-(4-{[(3S,4R)-3-fluoro-1-methylpiperidin-4-yl]amino}-1-(2,2,2-trifluoroethyl)-1H-indol-2-yl)-1,2,4-oxadiazol-5-yl]methyl}pyridine-3-carboxamide]
* (* = 0 μM ≤ SC150 < 0.1 μM)	CN1CC[C@@H](Nc2cccc3c2cc(-c2noc(C(=O)NCC4CCOCC4)n2)n3CC(F)(F)F)[C@@H](F)C1 [Compound 558B, 3-(4-{[(3S,4R)-3-fluoro-1-methylpiperidin-4-yl]amino}-1-(2,2,2-trifluoroethyl)-1H-indol-2-yl)-N-[(oxan-4-yl)methyl]-1,2,4-oxadiazole-5-carboxamide]
